The source made the active and inactive calls.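 How the source made its calls: active means EC50 of 10 µM or lower; inactive means EC50 above 10 µM.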
Each compound was assayed on DHL10 Bax/Bak-deficient cells, cytotoxicity, MTS absorbance (assay: cytotoxicity in Bax/Bak-deficient DHL10 cells, late-stage follow-up, counter-screen for MCL1-BIM inhibitor project, cell-based, MTS absorbance, EC50 (AID 493058)).

| SMILES | EC50 |
| --- | --- |
| CCN(CC)C(=O)COc1ccc2c(-c3ccc(OC)cc3)cc(=O)oc2c1 | > 25 µM (inactive) |
| COc1ccc(Cc2nnc(NC(=O)Cc3ccc(-c4ccccc4)cc3)s2)cc1OC | > 25 µM (inactive) |
| CCOc1cc(N2CCOCC2)c(OCC)cc1NC(=O)c1cc(-c2ccco2)nc2ccccc12 | > 25 µM (inactive) |
| COc1ccc(Cc2nnc(NC(=O)Cc3ccccn3)s2)cc1OC | > 25 µM (inactive) |
| Cc1ccc(-c2cc(C(=O)NCCCn3ccnc3)c3cc(Br)ccc3n2)o1 | > 25 µM (inactive) |
| CC1CCCN(C(=O)c2cc(-c3ccco3)nc3ccccc23)C1 (stereo unspecified) | > 25 µM (inactive) |
| COCCCN(C(=O)c1cc(-c2ccco2)nc2ccccc12)c1c(N)n(Cc2ccccc2)c(=O)[nH]c1=O | > 25 µM (inactive) |
| COc1ccc(NC(=O)c2cc(-c3ccc(C)o3)nc3ccccc23)cc1OC | > 25 µM (inactive) |
| CN(C)C(=O)c1ccc(NC(=O)c2cc(-c3ccco3)nc3ccccc23)cc1 | > 25 µM (inactive) |
| Cc1ccc(-c2cc(C(=O)N3CCN(c4ccc(F)cc4)CC3)c3ccccc3n2)o1 | > 25 µM (inactive) |
| O=C(Nc1nccs1)c1cc(-c2ccco2)nc2ccccc12 | > 25 µM (inactive) |
| NS(=O)(=O)c1ccc(CCNC(=O)c2cc(-c3ccco3)nc3ccccc23)cc1 | > 25 µM (inactive) |
| O=C(Nc1cccc(S(=O)(=O)NC2=NCCC2)c1)c1cc(-c2ccco2)nc2ccccc12 | > 25 µM (inactive) |
| CCN1CCN(C(=O)c2cc(-c3ccco3)nc3ccccc23)CC1 | > 25 µM (inactive) |
| Cc1ccc(NC(=O)c2cc(-c3ccc(C)o3)nc3ccccc23)cc1 | > 25 µM (inactive) |
| Cc1ccc(S(=O)(=O)N(C)C)cc1NC(=O)c1cc(-c2ccco2)nc2ccccc12 | > 25 µM (inactive) |
| COc1ccc(Cc2nnc(NC(=O)Cc3ccc(C)cc3)s2)cc1OC | > 25 µM (inactive) |
| COc1ccc(CC(=O)Nc2nnc(Cc3ccc(OC)c(OC)c3)s2)cc1 | > 25 µM (inactive) |
| CN(CC(=O)Nc1cccc(F)c1)C(=O)c1cc(-c2ccco2)nc2ccccc12 | > 25 µM (inactive) |
| COc1ccccc1CC(=O)Nc1nnc(Cc2ccc(OC)c(OC)c2)s1 | > 25 µM (inactive) |
| CCN(CC)CCNC(=O)c1cc(-c2ccco2)nc2ccccc12 | > 25 µM (inactive) |
| CCN(CC)C(=O)COc1ccc2c(-c3ccc(OC)cc3)cc(=O)oc2c1C | > 25 µM (inactive) |

| SMILES | EC50 |
| --- | --- |
| COc1ccc(Cc2nnc(NC(=O)CCc3ccco3)s2)cc1OC | > 25 µM (inactive) |
| O=C(Nc1ccc(F)cc1F)c1cc(-c2ccco2)nc2ccccc12 | > 25 µM (inactive) |
| CN(CCOc1ccc(Cl)cc1)C(=O)c1cc(-c2ccco2)nc2ccccc12 | > 25 µM (inactive) |
| CCCCn1c(N)c(N(CC(C)C)C(=O)c2cc(-c3ccco3)nc3ccccc23)c(=O)[nH]c1=O | > 25 µM (inactive) |
| COc1ccc(Cc2nnc(NC(=O)c3cc(-c4ccco4)nc4ccccc34)s2)cc1OC | > 25 µM (inactive) |
| O=C(c1cc(-c2ccco2)nc2ccccc12)N(Cc1nnc(-c2ccc(Cl)cc2)o1)C1CC1 | > 25 µM (inactive) |
| Cc1ccc(-c2cc(C(=O)Nc3ccccc3C)c3ccccc3n2)o1 | > 25 µM (inactive) |
| O=C(Nc1nc2ccccc2s1)c1cc(-c2ccco2)nc2ccccc12 | > 25 µM (inactive) |
| Cc1csc(NC(=O)c2cc(-c3ccco3)nc3ccccc23)n1 | > 25 µM (inactive) |
| O=C(Nc1nncs1)c1cc(-c2ccco2)nc2ccccc12 | > 25 µM (inactive) |
| Cc1ccc(-c2cc(C(=O)Nc3cccc(S(=O)(=O)N(C)C)c3)c3ccccc3n2)o1 | > 25 µM (inactive) |
| Cc1ccc(-c2cc(C(=O)N3CCN(c4ccccc4O)CC3)c3ccccc3n2)o1 | > 25 µM (inactive) |
| CCCCn1c(N)c(N(CCOC)C(=O)c2cc(-c3ccco3)nc3ccccc23)c(=O)[nH]c1=O | > 25 µM (inactive) |
| COc1cccc(NC(=O)CN(C)C(=O)c2cc(-c3ccc(C)o3)nc3ccccc23)c1 | > 25 µM (inactive) |
| Cc1ccc(-c2cc(C(=O)N3CCCC(C(F)(F)F)C3)c3ccccc3n2)o1 (stereo unspecified) | > 25 µM (inactive) |
| Cc1ccc(-c2cc(C(=O)N3CCN(c4ncccn4)CC3)c3cc(Br)ccc3n2)o1 | > 25 µM (inactive) |
| COc1ccc(NC(=O)c2cc(-c3ccco3)nc3ccccc23)cc1 | > 25 µM (inactive) |
| O=C(Nc1cccc(S(=O)(=O)NC2=NCCCCC2)c1)c1cc(-c2ccco2)nc2ccccc12 | > 25 µM (inactive) |
| COc1ccc(Cc2nnc(CC(=O)Nc3cccs3)s2)cc1 | > 25 µM (inactive) |
| O=C(NCC1CCCO1)c1cc(-c2ccco2)nc2ccccc12 (stereo unspecified) | > 25 µM (inactive) |
| Cc1ccc(-c2cc(C(=O)N(C)CC(=O)Nc3ccccc3Br)c3ccccc3n2)o1 | > 25 µM (inactive) |
| COc1ccc(Cc2nnc(NC(=O)Cc3ccccc3C)s2)cc1OC | > 25 µM (inactive) |

| SMILES | EC50 |
| --- | --- |
| O=C(c1cc(-c2ccco2)nc2ccccc12)N1CCCC(C(F)(F)F)C1 (stereo unspecified) | > 25 µM (inactive) |
| Cc1ccc(-c2cc(C(=O)N3CCOCC3)c3ccccc3n2)o1 | > 25 µM (inactive) |
| COc1ccc(Cc2nnc(NC(=O)Cc3sc(=S)[nH]c3C)s2)cc1OC | > 25 µM (inactive) |
| Cc1cccc(NC(=O)c2cc(-c3ccco3)nc3ccccc23)n1 | > 25 µM (inactive) |
| COc1ccc(Cc2nnc(NC(=O)Cc3ccc4ccccc4c3)s2)cc1OC | > 25 µM (inactive) |
| O=C(Nc1cccc(F)c1)c1cc(-c2ccco2)nc2ccccc12 | > 25 µM (inactive) |
| COc1ccc(Cc2nnc(NC(=O)C(F)c3ccccc3)s2)cc1OC (stereo unspecified) | > 25 µM (inactive) |
| O=C(c1cc(-c2ccco2)nc2ccccc12)N1CCN(Cc2ccccc2)CC1 | > 25 µM (inactive) |
| Cc1ccc(-c2cc(C(=O)N3CC(C)CC(C)C3)c3ccccc3n2)o1 (stereo unspecified) | > 25 µM (inactive) |
| CCCCN(C(=O)c1cc(-c2ccco2)nc2ccccc12)c1c(N)n(CCCC)c(=O)[nH]c1=O | > 25 µM (inactive) |
| Cc1ccc(NC(=O)c2cc(-c3ccc(C)o3)nc3ccccc23)nc1 | > 25 µM (inactive) |
| CCN(CC)C(=O)COc1ccc2c(-c3ccccc3)cc(=O)oc2c1 | > 25 µM (inactive) |
| COc1ccc(Cc2nnc(NC(=O)Cc3ccc(N(C)C)cc3)s2)cc1OC | > 25 µM (inactive) |
| CCCN(C(=O)c1cc(-c2ccco2)nc2ccccc12)c1c(N)n(Cc2ccccc2)c(=O)[nH]c1=O | > 25 µM (inactive) |
| Cc1nnc(NC(=O)c2cc(-c3ccco3)nc3ccccc23)s1 | > 25 µM (inactive) |
| O=C(Cc1cccs1)Nc1nnc(Cc2ccccc2)s1 | > 25 µM (inactive) |
| O=C(CCn1nnc2ccccc21)Nc1nnc(Cc2ccccc2)s1 | > 25 µM (inactive) |
| O=C(NC(=S)Nc1cccc(S(=O)(=O)NC2=NCCC2)c1)c1cc(-c2ccco2)nc2ccccc12 | > 25 µM (inactive) |
| COc1ccc(Cc2nnc(NC(=O)Cc3cc(F)cc(F)c3)s2)cc1OC | > 25 µM (inactive) |
| COc1ccc(-c2cc(=O)oc3cc(OCC(=O)N4CC4)ccc23)cc1 | > 25 µM (inactive) |
| CCc1nnc(NC(=O)c2cc(-c3ccc(C)o3)nc3ccccc23)s1 | > 25 µM (inactive) |
| O=C(Nc1cccnc1)c1cc(-c2ccco2)nc2ccc(Br)cc12 | > 25 µM (inactive) |
